Test results from patent US10793561B2, “1,8-naphthyridinone compounds and uses thereof” (NUVATION BIO INC., priority 2017, dated 2020).
pIC50: −log10 of the molar value.

Legend:
adenosine A2A receptor [1] = target: T1, adenosine A2A receptor (Homo sapiens (Human), UniProt P29274); assay: Radioligand binding competition assay, adenosine A2A receptor; details: for A2A radioligand binding competition assay % residual binding @ 100 nM: 100 nM compound; for A2A radioligand binding competition assay % residual binding @ 300 nM: 300 nM compound; for A2A radioligand binding competition assay % residual binding @ 1000 nM: 1000 nM compound; for A2A radioligand binding competition assay % residual binding @ 3000 nM: 3000 nM compound
Method: (§1) Binding of selected compounds to the adenosine A1, A2A, A2B, and A3 receptors was tested using a binding competition assay.
(§2) The general protocol for the radioligand binding competition assay was as follows. Competition binding was performed in duplicate in the wells of a 96 well plate (Master Block, Greiner, 786201) containing binding buffer (optimized for each receptor), membrane extracts (amount of protein/well optimized for each receptor), radiotracer (final concentration optimized for each receptor), and test compound. Nonspecific binding was determined by co-incubation with 200-fold excess of cold competitor. The samples were incubated in a final volume of 0.1 mL at 25° C. for 60 minutes and then filtered over filter plates. Filters were washed six times with 0.5 mL of ice-cold washing buffer (optimized for each receptor) and 50 μL of Microscint 20 (Packard) were added on each filter. The filter plates were sealed, incubated 15 min on an orbital shaker and scintillation counted with a TopCount for 30 sec/filter.
For the adenosine A2A receptor radioligand binding assay, the following modifications were made to the general protocol. GF/C filters (Perkin Elmer, 6005174), presoaked in 0.01% Brij for 2 h at room temperature were used. Filters were washed six times with 0.5 mL of ice-cold washing buffer (50 mM Tris pH 7.4) and 50 μL of Microscint 20 (Packard) was added in each well. The plates were then incubated for 15 min on an orbital shaker and then counted with a TopCount™ for 1 min/well.
Another radioligand binding assay was used to evaluate the binding affinity for the adenosine A2A receptor assay was performed in duplicate in the wells of a 384 plate. Assay buffer contained DPBS 500 mM, MgCl2 0.1 mM, and 1% DMSO. Membrane-bead suspension was prepared by mixing 25.98 μL of human adenosine A2A membrane preparation (Perkin Elmer, RBHA2AM400UA) at 33.4 pg/mL, 28 μL of ADA at 20 pg/mL, and 932 μL of SPA beads at 3.33 mg/mL) and incubated the mixture for 20 min at room temperature. Mixed 20 μL of radiotracer (^3H-SCH 58261) at 15 nM to each well containing test articles at various concentrations and centrifuge the plate at 1000 rpm for 1 minute. Added 30 μL of the membrane-bead suspension to each well. Sealed the plates and incubated for 1 hr at room temperature with vigorous mixing on a plate mixer. Plates were read on Microbeta^2 (Perkin Elmer, 2450-0010).
(§3) CHO-K1-A3 cell membranes, 1.5 μg/well; a binding buffer comprising HEPES 25 mM pH 7.4, MgCl2 5 mM, CaCl2 1 mM, 0.5% BSA; a wash buffer comprising HEPES 25 mM pH 7.4, MgCl2 5 mM, CaCl2 1 mM; a Unifilter GF/C—treated for 2 h with 0.5% BS; and 0.4 nM of ^125I-AB-MECA as the tracer. The results of the binding assay are shown in Table B1-1 and are shown as percent residual binding at a given concentration. Percent of residual binding means binding of a compound in the presence of competitor normalized to the amount of binding in the absence of competitor. […] For example, compound 1 strongly bound to A2A (30% residual binding at a concentration of 100 nM), A1 (−3% residual binding at 300 nM) and A2B, (−9% residual binding at 300 nM) but weakly bound to A3 (96% residual binding at 300 nM).

adenosine A2A receptor [2] = target: T1, adenosine A2A receptor; assay: cAMP assay in HEK-293 cells expressing human recombinant adenosine A2A receptor; assay type: cell-based; details: for pIC50: first cAMP table; for inhibition at 0.1 µM: HEK293, 100 nM compound, read-out: A2a cAMP % inh @ 100 nM
Method: The functional activity of compounds was tested using one of the two assays to detect the present of cAMP. Activation of G-protein coupled receptors (such as A2A) results in activation of adenylcyclase which converts ATP into cAMP which is used as a downstream signaling molecule. Therefore, molecules which act as GPCR (or specifically A2A receptor) antagonists cause a decrease in intracellular cAMP concentration.
Both assays used HEK-293 cells expressing human recombinant adenosine A2A receptor were grown prior to the test in media without antibiotic. Assay 1: The cells were detached by gentle flushing with PBS-EDTA (5 mM EDTA), recovered by centrifugation and suspended in assay buffer (KRH: 5 mM KCl, 1.25 mM MgSO4, 124 mM NaCl, 25 mM HEPES, 13.3 mM Glucose, 1.25 mM KH2PO4, 1.45 mM CaCl2, 0.5 g/L BSA, supplemented with Rolipram).
12 μL of cells were mixed with 6 μL of the test compound at increasing concentrations and then incubated for 10 min. Thereafter 6 μL of the reference agonist was added at a final concentration corresponding to the historical EC80. The plates were then incubated for 30 min at room temperature. After addition of the lysis buffer and 1 hour incubation, cAMP concentrations were estimated, according to the manufacturer specification, with the HTRF® kit.
Assay 2: 100 nL of test articles at 100× of final concentration were transferred to assay plate by Echo. Cells were washed twice with 5 mL of PBS […]. After aspirating the PBS and adding 1.5 mL versine, cells were incubated at 37° C. for 2-5 min. After centrifugation, 4 mL of medium was added and adjusted cell density to 5,000 cells/well with stimulation buffer. 10 μL of cells were aliquoted to the assay plate, centrifuged at 1000 rpm for 1 minute, and incubated for 60 minutes at room temperature. 5 μL 4× Eu-cAMP tracer solution and 5 μL 4× Ulight™-anti-cAMP solution were added to assay plate, followed by centrifugation and 60-minute incubation at room temperature. Plates were read on EnVision.

adenosine A3 receptor = adenosine A3 receptor (Homo sapiens (Human), UniProt P0DMS8); assay: Radioligand binding competition assay, adenosine A3 receptor (CHO-K1-A3 cell membranes); details: 300 nM compound
Method: as §1, §2
For the adenosine A3 radioligand binding competition assay, the following reagents were used:
as §3

adenosine A1 receptor = adenosine A1 receptor (Homo sapiens (Human), UniProt P30542); assay: Radioligand binding competition assay, adenosine A1 receptor (CHO-K1-A1 cell membranes); details: 300 nM compound
Method: as §1, §2
For the adenosine A1 radioligand binding competition assay, a similar procedure was used except that the following reagents were used: CHO-K1-A1 cell membranes; binding buffer comprising HEPES 25 mM pH 7.4, MgCl2 5 mM, CaCl2 1 mM, NaCl 100 mM, saponin 10 µg/mL; wash buffer comprising HEPES 25 mM pH 7.4, MgCl2 5 mM, CaCl2 1 mM, NaCl 100 mM; Unifilter GF/B—treated for 2 h with 0.5% PEI was the filter; and 1.6 nM of ^3H-DPCPX was the tracer.
as §3

adenosine A2B receptor = adenosine A2B receptor (Homo sapiens (Human), UniProt P29275); assay: Radioligand binding competition assay, adenosine A2B receptor (HEK-293-A2b cell membranes); details: 300 nM compound
Method: as §1, §2
Similarly, the following reagents were used for the adenosine A2B radioligand binding competition assay: HEK-293-A2b cell membranes, 20 μg/well, preincubated 30 min at RT with […] Adenosine Deaminase; a binding buffer comprising HEPES 10 mM pH7.4, EDTA 1 mM, 0.5% BSA; a wash buffer comprising HEPES 10 mM pH7.4, EDTA 1 mM; a Unifilter GF/C—treated for 2 h with 0.5% PEI; and 10 nM ^3H-DPCPX as the tracer.
as §3

Sequence of adenosine A1 receptor (P30542 whole entry): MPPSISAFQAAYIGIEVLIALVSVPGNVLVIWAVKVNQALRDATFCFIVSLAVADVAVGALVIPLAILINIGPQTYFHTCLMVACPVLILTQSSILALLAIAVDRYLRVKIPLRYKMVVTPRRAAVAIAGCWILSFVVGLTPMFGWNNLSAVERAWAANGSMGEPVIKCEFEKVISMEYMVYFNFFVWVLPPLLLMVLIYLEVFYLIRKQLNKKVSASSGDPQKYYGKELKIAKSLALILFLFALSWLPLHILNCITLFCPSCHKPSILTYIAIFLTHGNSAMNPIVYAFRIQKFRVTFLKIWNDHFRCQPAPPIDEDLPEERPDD
Sequence of adenosine A3 receptor (P0DMS8 whole entry): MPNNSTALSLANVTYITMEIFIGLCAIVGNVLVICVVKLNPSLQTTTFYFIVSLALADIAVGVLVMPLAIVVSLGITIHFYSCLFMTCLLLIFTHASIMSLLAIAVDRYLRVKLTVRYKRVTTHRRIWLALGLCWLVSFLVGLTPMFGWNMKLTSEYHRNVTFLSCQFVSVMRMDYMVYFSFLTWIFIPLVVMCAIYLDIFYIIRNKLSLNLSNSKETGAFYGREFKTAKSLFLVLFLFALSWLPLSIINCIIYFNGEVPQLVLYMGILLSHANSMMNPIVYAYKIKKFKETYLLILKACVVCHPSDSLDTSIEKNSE
T1 sequence (P29274 whole entry): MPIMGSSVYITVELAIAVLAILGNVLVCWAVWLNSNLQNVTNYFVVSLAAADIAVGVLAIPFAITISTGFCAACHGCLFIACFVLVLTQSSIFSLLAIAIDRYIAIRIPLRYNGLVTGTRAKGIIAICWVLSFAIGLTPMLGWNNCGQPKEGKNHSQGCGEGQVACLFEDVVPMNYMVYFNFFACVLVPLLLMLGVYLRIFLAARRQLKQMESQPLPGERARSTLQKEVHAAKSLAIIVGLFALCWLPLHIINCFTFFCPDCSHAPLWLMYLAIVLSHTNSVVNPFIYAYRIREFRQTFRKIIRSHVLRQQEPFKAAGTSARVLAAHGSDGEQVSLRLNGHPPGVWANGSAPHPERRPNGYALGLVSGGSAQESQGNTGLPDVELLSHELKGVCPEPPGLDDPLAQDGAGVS
Sequence of adenosine A2B receptor (P29275 whole entry): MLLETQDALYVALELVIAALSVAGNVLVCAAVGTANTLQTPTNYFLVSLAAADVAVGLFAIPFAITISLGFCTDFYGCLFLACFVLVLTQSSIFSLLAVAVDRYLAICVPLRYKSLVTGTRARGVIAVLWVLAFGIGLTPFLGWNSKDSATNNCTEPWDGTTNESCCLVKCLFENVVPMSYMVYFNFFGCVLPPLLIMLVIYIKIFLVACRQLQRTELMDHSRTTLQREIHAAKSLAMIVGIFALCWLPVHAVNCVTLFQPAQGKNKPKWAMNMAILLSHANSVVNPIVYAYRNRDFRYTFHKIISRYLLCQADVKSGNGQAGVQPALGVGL

| Structure (SMILES) | A2A radioligand binding competition assay % residual binding @ 100 nM (adenosine A2A receptor [1]) | A2A radioligand binding competition assay % residual binding @ 300 nM (adenosine A2A receptor [1]) | pIC50 (adenosine A2A receptor [2]) | Radioligand binding competition assay % residual binding @ 300 nM (A3) (adenosine A3 receptor) | Radioligand binding competition assay % residual binding @ 300 nM (A1) (adenosine A1 receptor) | Radioligand binding competition assay % residual binding @ 300 nM (A2b) (adenosine A2B receptor) | pIC50 (adenosine A2A receptor [1]) | A2A radioligand binding competition assay % residual binding @ 1000 nM (adenosine A2A receptor [1]) | A2A radioligand binding competition assay % residual binding @ 3000 nM (adenosine A2A receptor [1]) | inhibition at 0.1 µM (adenosine A2A receptor [2]) |
| --- | --- | --- | --- | --- | --- | --- | --- | --- | --- | --- |
| O=c1cc[nH]c2nc(-c3ccccc3)c(-c3ccc4[nH]cnc4c3)cc12 [Compound No. 1.7, 6-(1H-benzo[d]imidazol-5-yl)-7-phenyl-1,8-naphthyridin-4(1H)-one] | 52% | 33% |  | 84% | 7% | 0% |  | 21% | 18% | 81% |
| O=c1cc[nH]c2nc(-c3ccco3)c(-c3ccc4ncccc4c3)cc12 [Compound No. 1.14, 7-(furan-2-yl)-6-(quinolin-6-yl)-1,8-naphthyridin-4(1H)-one] |  |  |  | 87% | 13% | 0% | 7.48 |  | 5/ND/ND/ND % | 94% |

Other lines, results leading:

| A2A radioligand binding competition assay % residual binding @ 100 nM (adenosine A2A receptor [1]) | A2A radioligand binding competition assay % residual binding @ 300 nM (adenosine A2A receptor [1]) | pIC50 (adenosine A2A receptor [2]) | Radioligand binding competition assay % residual binding @ 300 nM (A3) (adenosine A3 receptor) | Radioligand binding competition assay % residual binding @ 300 nM (A1) (adenosine A1 receptor) | Radioligand binding competition assay % residual binding @ 300 nM (A2b) (adenosine A2B receptor) | pIC50 (adenosine A2A receptor [1]) | A2A radioligand binding competition assay % residual binding @ 1000 nM (adenosine A2A receptor [1]) | A2A radioligand binding competition assay % residual binding @ 3000 nM (adenosine A2A receptor [1]) | inhibition at 0.1 µM (adenosine A2A receptor [2]) | Structure (SMILES) |
| --- | --- | --- | --- | --- | --- | --- | --- | --- | --- | --- |
| 83% | 54% | 7.21 | 95% | 1.6% | 17% |  |  |  |  | O=c1ccc2cc(-c3ccc(O)c(Cl)c3)c(-c3ccccc3)nc2[nH]1 [1.1, 6-(3-chloro-4-hydroxy-phenyl)-7-phenyl-1H-1,8-naphthyridin-2-one] |
| 74% | 38% | 7.64 | 104% | 11% | 2% | 6.74 | 12% | 22% |  | O=c1cc[nH]c2nc(-c3ccccc3)c(-c3ccc4ncccc4c3)cc12 [1.5, 7-phenyl-6-(quinolin-6-yl)-1,8-naphthyridin-4(1H)-one] |
| 77% | 60% | 7.66 | 83% | 0% | 0% |  |  |  |  | O=c1cc[nH]c2nc(-c3ccccc3)c(-c3ccc(O)c(Cl)c3)cc12 [1.2, 6-(3-chloro-4-hydroxy-phenyl)-7-phenyl-1H-1,8-naphthyridin-4-one] |
